Measurements from PubChem BioAssay (NCI).
“And” between values parts separate entries of the source, which are not always exact repeats. Identical values can stand only once.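 How tested: cells in 96-well plates exposed to compound for 48 hours at five concentrations. Abbreviation: GI50, concentration required for 50% inhibition of growth. Definition used: TGI = concentration required for complete inhibition of growth.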

Columns and labels:
Test in all cases: NCI-60 cell line screen, 48 h
[1] = tested on: UACC-62 melanoma
[2] = tested on: UACC-257 melanoma
[3] = tested on: SR leukemia
[4] = tested on: NCI-H23 lung
[5] = tested on: HT29 colon
[6] = tested on: MCF7 breast
[7] = tested on: SK-OV-3 ovarian
[8] = tested on: IGROV1 ovarian
[9] = tested on: SF-295 CNS
[10] = tested on: SF-539 CNS
[11] = tested on: KM12 colon
[12] = tested on: HCC-2998 colon
[13] = tested on: MDA-MB-468 breast
[14] = tested on: COLO 205 colon
[15] = tested on: NCI-H522 lung
[16] = tested on: DU-145 prostate
[17] = tested on: SK-MEL-28 melanoma
[18] = tested on: SN12C renal
[19] = tested on: EKVX NSCLC
[20] = tested on: SNB-19 CNS
[21] = tested on: SF-268 CNS
[22] = tested on: SK-MEL-5 melanoma
[23] = tested on: MOLT-4 leukemia
[24] = tested on: A549 NSCLC
[25] = tested on: M14 melanoma
[26] = tested on: NCI/ADR-RES ovarian
[27] = tested on: MDA-MB-231 breast
[28] = tested on: BT-549 breast
[29] = tested on: SW-620 colon
[30] = tested on: T-47D breast
[31] = tested on: RPMI-8226 leukemia
[32] = tested on: UO-31 renal
[33] = tested on: K-562 leukemia
[34] = tested on: OVCAR-4 ovarian
[35] = tested on: U251 CNS
[36] = tested on: LOX IMVI melanoma
[37] = tested on: HCT-15 colon
[38] = tested on: HS 578T breast
[39] = tested on: OVCAR-5 ovarian
[40] = tested on: NCI-H460 lung
[41] = tested on: SNB-75 CNS
[42] = tested on: RXF 393 renal
[43] = tested on: OVCAR-3 ovarian
[44] = tested on: OVCAR-8 ovarian
[45] = tested on: 786-0 renal
[46] = tested on: CAKI-1 renal
[47] = tested on: CCRF-CEM leukemia
[48] = tested on: ACHN renal
[49] = tested on: HCT-116 colon
[50] = tested on: NCI-H226 lung
[51] = tested on: SK-MEL-2 melanoma
[52] = tested on: HOP-92 NSCLC
[53] = tested on: MALME-3M melanoma
[54] = tested on: PC-3 prostate
[55] = tested on: TK-10 renal
[56] = tested on: A498 renal
[57] = tested on: HOP-62 NSCLC
[58] = tested on: HL-60(TB) leukemia
[59] = tested on: MDA-MB-435

In the case of `CN1CCN(Cc2ccc(C(=O)Nc3cccc(C#Cc4cccc5[nH]nc(N)c45)c3)cc2C(F)(F)F)CC1`, the GI50 [1] is reported as 1.14 µM, the TGI [1] is reported as 2.39 µM and the GI50 [2] is reported as 1.36 µM. For the same compound, the TGI [2] was 2.73 µM, the GI50 [3] was 1.1 µM and the TGI [3] was 3.35 µM. It also gave a GI50 [4] of 1.25 µM, a TGI [4] of 2.53 µM and a GI50 [5] of 0.603 µM. For the same compound, the TGI [5] was 1.94 µM, the GI50 [6] was 1.51 µM and the TGI [6] was 2.9 µM. The GI50 [7] was 1.94 µM, the TGI [7] was 3.47 µM and the GI50 [8] was 0.387 µM. It also gave a TGI [8] of 1.44 µM, a GI50 [9] of 1.33 µM and a TGI [9] of 2.63 µM. The GI50 [10] was 0.305 µM, the TGI [10] was 1.35 µM and the GI50 [11] was 1.41 µM. For the same compound, the TGI [11] was 2.93 µM, the GI50 [12] was 0.88 µM and the TGI [12] was 2.19 µM. For the same compound, the GI50 [13] was 0.76 µM, the TGI [13] was 2.08 µM and the GI50 [14] was 0.862 µM. The TGI [14] was 2.21 µM, the GI50 [15] was 0.752 µM and the TGI [15] was 2.16 µM. It also gave a GI50 [16] of 1.2 µM, a TGI [16] of 2.46 µM and a GI50 [17] of 1.26 µM. For the same compound, the TGI [17] was 2.53 µM, the GI50 [18] was 0.739 µM and the TGI [18] was 2.14 µM. For the same compound, the GI50 [19] was 1.09 µM, the TGI [19] was 2.3 µM and the GI50 [20] was 1.84 µM. It also gave a TGI [20] of 3.25 µM, a GI50 [21] of 1.07 µM and a TGI [21] of 2.42 µM. The GI50 [22] was 1.49 µM, the TGI [22] was 2.81 µM and the GI50 [23] was 0.494 µM. The TGI [23] was 2.28 µM, the GI50 [24] was 0.721 µM and the TGI [24] was 2.01 µM. The GI50 [25] was 0.42 µM, the TGI [25] was 1.65 µM and the GI50 [26] was 1.48 µM. It also gave a TGI [26] of 3.32 µM, a GI50 [27] of 0.401 µM and a TGI [27] of 1.73 µM. The GI50 [28] was 1.8 µM, the TGI [28] was 4.06 µM and the GI50 [29] was 0.968 µM. The TGI [29] was 2.37 µM, the GI50 [30] was 1.56 µM and the TGI [30] was 3.27 µM. It also gave a GI50 [31] of 1.12 µM, a TGI [31] of 3.26 µM and a GI50 [32] of 0.854 µM. It also gave a TGI [32] of 2.09 µM, a TGI [33] of 1.02 µM and a GI50 [34] of 0.889 µM. For the same compound, the TGI [34] was 3.14 µM, the GI50 [35] was 1.22 µM and the TGI [35] was 2.47 µM. The GI50 [36] was 0.469 µM, the TGI [36] was 1.61 µM and the GI50 [37] was 0.648 µM. For the same compound, the TGI [37] was 1.78 µM, the GI50 [38] was 1.33 µM and the TGI [38] was 4.64 µM. The GI50 [39] was 1.28 µM, the TGI [39] was 2.6 µM and the GI50 [40] was 0.982 µM. The TGI [40] was 2.53 µM, the GI50 [41] was 1.45 µM and the TGI [41] was 3.69 µM. The GI50 [42] was 0.571 µM, the TGI [42] was 1.82 µM and the GI50 [43] was 1 µM. The TGI [43] was 2.51 µM, the GI50 [44] was 1.16 µM and the TGI [44] was 2.38 µM. For the same compound, the GI50 [45] was 1.28 µM, the TGI [45] was 2.61 µM and the GI50 [46] was 1.16 µM. It also gave a TGI [46] of 2.37 µM, a GI50 [47] of 1.17 µM and a TGI [47] of 3.33 µM. The GI50 [48] was 0.409 µM, the TGI [48] was 1.4 µM and the GI50 [49] was 0.42 µM. The TGI [49] was 1.62 µM, the GI50 [50] was 1 µM and the TGI [50] was 2.18 µM. The GI50 [51] was 1.53 µM, the TGI [51] was 3.03 µM and the GI50 [52] was 0.285 µM. It also gave a TGI [52] of 1.4 µM, a GI50 [53] of 0.284 µM and a TGI [53] of 1.2 µM. It also gave a GI50 [54] of 1 µM, a TGI [54] of 2.77 µM and a GI50 [55] of 1.75 µM. It also gave a TGI [55] of 3.17 µM, a GI50 [56] of 2.38 µM and a TGI [56] of 3.95 µM. It also gave a GI50 [57] of 1.47 µM, a TGI [57] of 2.89 µM and a GI50 [58] of 0.278 µM. It also gave a TGI [58] of 1.6 µM, a GI50 [59] of 1.09 µM and a TGI [59] of 2.45 µM.

`CC1=C(CCC=NNC(N)=O)C2=C(C)C3(CC3)[C@@](C)(O)C(=O)C2=C1` was tested, and the GI50 [1] was 0.142 µM, the TGI [1] was 0.292 µM and the GI50 [2] was 0.19 µM. The TGI [2] was 0.427 µM, the GI50 [3] was 1.82 µM and the TGI [3] was greater than 100 µM. The GI50 [4] was 0.0172 µM, the TGI [4] was 0.045 µM and the GI50 [5] was 0.17 µM. For the same compound, the TGI [5] was 0.74 µM, the GI50 [7] was 0.0422 µM and the TGI [7] was 0.334 µM. It also gave a GI50 [8] of 0.0356 µM, a TGI [8] of 0.161 µM and a GI50 [9] of 0.0893 µM. For the same compound, the TGI [9] was 1.21 µM, the GI50 [10] was 0.032 µM and the TGI [10] was 0.128 µM. It also gave a GI50 [11] of 0.506 µM, a TGI [11] of 7.67 µM and a GI50 [12] of 0.0941 µM. For the same compound, the TGI [12] was 0.259 µM, the GI50 [13] was 0.187 µM and 0.0316 µM and the TGI [13] was 0.691 µM and 0.0953 µM. It also gave a GI50 [14] of 0.152 µM, a TGI [14] of 0.314 µM and a GI50 [15] of 0.165 µM. The TGI [15] was 0.414 µM, the GI50 [16] was 0.0347 µM and the TGI [16] was 1.2 µM. It also gave a GI50 [17] of 0.187 µM, a TGI [17] of 0.369 µM and a GI50 [18] of 0.0923 µM. The TGI [18] was 0.654 µM, the GI50 [19] was 0.177 µM and the TGI [19] was 0.526 µM. It also gave a GI50 [20] of 0.225 µM, a TGI [20] of 0.894 µM and a GI50 [21] of 0.0343 µM. The TGI [21] was 0.423 µM, the GI50 [22] was 0.094 µM and the TGI [22] was 0.248 µM. It also gave a GI50 [23] of 1.18 µM, a TGI [23] greater than 41.5 µM and a GI50 [24] of 0.122 µM. The TGI [24] was 2.16 µM, the GI50 [25] was 0.0745 µM and the TGI [25] was 0.253 µM. For the same compound, the GI50 [26] was 0.104 µM, the TGI [26] was 0.407 µM and the GI50 [27] was 0.142 µM. For the same compound, the TGI [27] was 0.435 µM, the GI50 [28] was 0.0605 µM and the TGI [28] was 0.212 µM. It also gave a GI50 [29] of 1.44 µM, a TGI [29] of 3.74 µM and a GI50 [30] of 0.0862 µM. The TGI [30] was 2.74 µM, the GI50 [31] was 3.02 µM and the TGI [31] was greater than 35.2 µM. It also gave a GI50 [32] of 0.0712 µM, a TGI [32] of 0.277 µM and a GI50 [33] of 2.32 µM. It also gave a TGI [33] greater than 37.9 µM, a GI50 [34] of 0.172 µM and a TGI [34] of 0.574 µM. The GI50 [35] was 0.21 µM, the TGI [35] was 0.936 µM and the GI50 [36] was 0.149 µM. For the same compound, the TGI [36] was 0.41 µM, the GI50 [37] was 0.122 µM and the TGI [37] was 0.616 µM. For the same compound, the GI50 [38] was 0.249 µM, the TGI [38] was 1.07 µM and the GI50 [39] was 0.0451 µM. The TGI [39] was 0.364 µM, the GI50 [40] was 0.0243 µM and the TGI [40] was 0.218 µM. The GI50 [41] was 0.0725 µM, the TGI [41] was 0.226 µM and the GI50 [42] was 0.0194 µM. The TGI [42] was 0.0418 µM, the GI50 [43] was 0.132 µM and the TGI [43] was 0.828 µM. It also gave a GI50 [45] of 0.113 µM, a TGI [45] of 0.428 µM and a GI50 [46] of 0.133 µM. The TGI [46] was 1.11 µM, the GI50 [47] was 2.36 µM and the TGI [47] was greater than 35.2 µM. The GI50 [48] was 0.0687 µM, the TGI [48] was 0.344 µM and the GI50 [49] was 0.142 µM. For the same compound, the TGI [49] was 1.4 µM, the GI50 [50] was 0.2 µM and the TGI [50] was 0.646 µM. For the same compound, the GI50 [51] was 0.193 µM, the TGI [51] was 0.362 µM and the GI50 [52] was 0.0346 µM. The TGI [52] was 0.18 µM, the GI50 [53] was 0.0822 µM and the TGI [53] was 0.218 µM. It also gave a GI50 [54] of 0.175 µM, a TGI [54] of 1.96 µM and a GI50 [55] of 0.278 µM. It also gave a TGI [55] of 1.26 µM, a GI50 [56] of 0.208 µM and a TGI [56] of 0.511 µM. The GI50 [57] was 0.0744 µM, the TGI [57] was 0.802 µM and the GI50 [58] was 0.0568 µM. The GI50 [59] was 0.267 µM and the TGI [59] was 0.941 µM.
